Experimental data reported in patent US8426448B2, “1,5-diphenyl-pyrrolidin-2-one compounds as CB-1 ligands” (Eli Lilly and Company, priority 2008, dated 2013).
Where a name gives a salt, the structure may show the parent alone.

Columns and labels:
hCB-1 [1] = molecular target: T1, hCB-1 (Homo sapiens, UniProt P21554); assay: hCB1-CHO antagonist mode SPA GTP-γ-35S binding assay; assay type: biochemical; design: purchased Applied Cell Sciences, Rockville, Md; host or cells: CHO cell membranes; settings: antagonist mode vs methanandamide; read-out: hCB-1 SPA GTPγS CHO Membrane Antagonist Kb
T1 sequence (P21554 whole entry): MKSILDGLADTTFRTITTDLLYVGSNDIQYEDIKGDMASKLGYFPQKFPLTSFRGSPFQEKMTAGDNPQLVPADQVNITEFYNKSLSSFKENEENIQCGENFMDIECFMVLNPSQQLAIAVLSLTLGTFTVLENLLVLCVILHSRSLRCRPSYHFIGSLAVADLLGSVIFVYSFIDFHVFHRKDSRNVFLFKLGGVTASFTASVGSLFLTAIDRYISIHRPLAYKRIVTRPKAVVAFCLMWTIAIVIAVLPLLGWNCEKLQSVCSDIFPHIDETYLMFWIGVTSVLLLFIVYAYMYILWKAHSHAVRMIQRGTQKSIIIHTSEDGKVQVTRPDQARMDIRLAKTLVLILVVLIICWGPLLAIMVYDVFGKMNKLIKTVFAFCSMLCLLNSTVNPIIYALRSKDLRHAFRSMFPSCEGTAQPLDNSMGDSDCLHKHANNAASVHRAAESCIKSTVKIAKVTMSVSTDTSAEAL
Description: (§1) Compounds of the present invention may be tested for functional activity at the CB-1 and CB-2 receptors in both agonist and antagonist modes using SPA (Scintillation Proximity Assay) based GTP-γ-^35S binding assays. All assay components are prepared in assay buffer (20 mM HEPES, 100 mM NaCl, 5 mM MgCl2, pH 7.4) at room temperature. Semi-log dilutions of test compound are prepared in assay buffer containing BSA (0.125% final conc.) for the agonist mode assays. For the antagonist mode assays, test compounds are prepared in the same manner but also include an 80% efficacious dose of a full agonist (methanandamide). GTP-γ^35S binding for the antagonist assay may be measured in a 96 well format using a modification of an antibody capture technique previously described. (DeLapp, N W, et al. (1999) J Pharmacol Exp Ther 289:946-955.) The CB-2 receptor agonist activity may be measured using a similar method using hCB2-Sf9 membranes. The CB-1 receptor agonist activity may be measured using a whole membrane capture technique using hCB1-CHO membranes. All incubations are done at room temperature.
(§2) hCB1-CHO or rCB1-CHO membranes (Applied Cell Sciences, Rockville, Md.) and GDP (1 μM final) are added to ice cold assay buffer and homogenized. […] Plates are then centrifuged at 700×g for 10 min. and the radioactivity counted.
(§3) Data are analyzed as follows: Background is subtracted from all wells. […] Percent antagonist inhibition is calculated by first normalizing the data to the signal generated by a saturating concentration of the full agonist (methanandamide). Then the data are analyzed using a 4-parameter logistic reduced fit (Activity Base™ and XLFit3™ from IDBS, Emeryville, Calif.). Kb values are determined using a modification of the Cheng-Prusoff relationship: Kb=IC50/(1+[agonist]/EC50), where “IC50” is determined from a four parameter fit of displacement curves, “[agonist]” is the agonist challenge concentration (nM), and “EC50” is determined from a four parameter fit of a full agonist concentration response curve (Cheng and Prusoff 1973). […]

CYP2D6 = molecular target: T2, CYP2D6 (Homo sapiens, UniProt P10635); assay: Human CYP fingerprinting, quinidine inhibition; assay type: in vitro ADME; settings: 4 μM, human liver microsomes, 30 min, 10 μM quinidine
T2 construct: pooled, mixed gender, human liver microsomes; from tissue; host or cells: pooled, mixed gender human liver microsomes
T2 sequence (P10635 whole entry): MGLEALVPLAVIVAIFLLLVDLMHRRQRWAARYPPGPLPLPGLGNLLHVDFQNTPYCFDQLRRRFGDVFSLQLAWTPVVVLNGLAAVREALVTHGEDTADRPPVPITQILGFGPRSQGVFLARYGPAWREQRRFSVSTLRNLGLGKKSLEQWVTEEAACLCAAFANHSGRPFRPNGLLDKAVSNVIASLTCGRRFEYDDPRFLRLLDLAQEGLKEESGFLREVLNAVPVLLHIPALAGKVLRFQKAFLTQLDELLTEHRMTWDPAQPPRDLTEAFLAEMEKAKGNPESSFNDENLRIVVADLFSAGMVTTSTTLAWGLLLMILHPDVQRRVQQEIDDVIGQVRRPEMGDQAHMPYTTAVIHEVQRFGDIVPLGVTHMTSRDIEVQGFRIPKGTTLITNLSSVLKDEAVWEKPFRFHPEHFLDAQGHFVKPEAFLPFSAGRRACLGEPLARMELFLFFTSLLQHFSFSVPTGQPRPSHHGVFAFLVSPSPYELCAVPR
Description: (§4) CYP fingerprinting is well established technique and is used as an indication of potential risk of drug-drug interactions in the pharmaceutical sciences. Compounds of the present invention may be assayed by well known methods, essentially as follows: Compounds are incubated at 37° C. at a final concentration of 4 μM with pooled, mixed gender, human liver microsomes and 1 mM NADPH (Nicotine Adenine Dinucleotide Phosphate) (final conc.) for 0 and 30 min. without any CYP inhibitor and with each CYP inhibitor in separate incubations for 30 min. Each inhibitor is specific for an individual cytochrome P450. The specific inhibitors used for CYPs 2C9, 2D6 and 3A were sulfaphenazole, quinidine and ketoconazole, respectively. Ketoconazole (CYP3A) is made up at 25 mM in DMSO and then diluted in buffer to a final concentration of 10 μM. Quinidine (CYP2D6) is made up at 5 mM in 50/50 acetonitrile/water and then diluted in buffer to a final concentration of 10 μM. Sulfaphenazole (CYP2C9) is made up at 100 mM in DMSO and then diluted in buffer to a final concentration of 5 μM. Samples are analyzed by LC-MS in positive or negative electrospray mode using a Waters Acquity Ultra Performance LC coupled to a MicroMass Q-T of-2 mass spectrometer.
(§5) Data are analyzed using MetaboLynx™ version 4.1. […]

CYP3A = assay: Human CYP fingerprinting, ketoconazole inhibition; assay type: in vitro ADME; settings: 4 μM, human liver microsomes, 30 min, 10 μM ketoconazole
Description: as §4, §5

hCB-1 [2] = molecular target: T1, hCB-1; assay: hCB1-CHO agonist mode SPA GTP-γ-35S binding assay; assay type: biochemical; design: purchased Applied Cell Sciences, Rockville, Md; host or cells: CHO cell membranes
Description: as §1
hCB1-CHO membrane, GDP (1 μM final conc.), and saponin (10 μg/mL final conc., Sigma, St Louis, Mo.) are combined and prepared on ice as for the antagonist assays, above. Diluted test compounds, GTP-γ-^35S ([…] final conc.) and membranes are combined in the assay plate and incubated for 30 min. Then 1 mg/well Wheatgerm Agglutinin SPA beads (GE Healthcare, Piscataway, N.J.) are added, plates are sealed and vortexed and incubate for 1 hr. before spinning and counting in the same fashion as for the antagonist assays, above.
Data are analyzed as follows: Background is subtracted from all wells. Percent agonist efficacy is determine by normalizing agonist/inverse agonist dose response data to the response obtained for a full agonist (methanandamide). Percent antagonist inhibition is calculated by first normalizing the data to the signal generated by a saturating concentration of the full agonist (methanandamide). Then the data are analyzed using a 4-parameter logistic reduced fit (Activity Base™ and XLFit3™ from IDBS, Emeryville, Calif.). Kb values are determined using a modification of the Cheng-Prusoff relationship: Kb=IC50/(1+[agonist]/EC50), where “IC50” is determined from a four parameter fit of displacement curves, “[agonist]” is the agonist challenge concentration (nM), and “EC50” is determined from a four parameter fit of a full agonist concentration response curve (Cheng and Prusoff 1973). Mean Kb values are calculated as a mean of at least three independent determinations±standard error of the mean (SEM). […]

rCB-1 = molecular target: T3, rCB-1 (Rattus norvegicus, UniProt P20272); assay: rCB1-CHO antagonist mode SPA GTP-γ-35S binding assay; assay type: biochemical; settings: antagonist mode vs methanandamide; read-out: rCB-1 SPA GTPγS CHO Membrane Antagonist Kb
T3 construct: purchased Applied Cell Sciences, Rockville, Md; host or cells: CHO cell membranes
T3 sequence (P20272 whole entry): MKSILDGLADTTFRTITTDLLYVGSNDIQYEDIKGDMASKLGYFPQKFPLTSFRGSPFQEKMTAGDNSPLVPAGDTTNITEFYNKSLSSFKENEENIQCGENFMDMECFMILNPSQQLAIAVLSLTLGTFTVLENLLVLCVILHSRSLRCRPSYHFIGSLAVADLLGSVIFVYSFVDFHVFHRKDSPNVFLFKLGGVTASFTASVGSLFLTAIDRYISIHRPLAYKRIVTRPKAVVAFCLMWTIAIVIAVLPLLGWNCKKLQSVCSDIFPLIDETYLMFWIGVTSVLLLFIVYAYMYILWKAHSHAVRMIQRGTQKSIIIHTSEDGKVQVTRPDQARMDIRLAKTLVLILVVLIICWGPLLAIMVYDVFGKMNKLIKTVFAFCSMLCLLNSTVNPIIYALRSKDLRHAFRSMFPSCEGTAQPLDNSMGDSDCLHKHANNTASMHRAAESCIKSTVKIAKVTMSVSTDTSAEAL
Description: as §1, §2, §3

CYP2C9 = molecular target: T4, CYP2C9 (Homo sapiens, UniProt P11712); assay: Human CYP fingerprinting, sulfaphenazole inhibition; assay type: in vitro ADME; settings: 4 μM, human liver microsomes, 30 min, 5 μM sulfaphenazole
T4 construct: pooled, mixed gender, human liver microsomes; from tissue; host or cells: pooled, mixed gender human liver microsomes
T4 sequence (P11712 whole entry): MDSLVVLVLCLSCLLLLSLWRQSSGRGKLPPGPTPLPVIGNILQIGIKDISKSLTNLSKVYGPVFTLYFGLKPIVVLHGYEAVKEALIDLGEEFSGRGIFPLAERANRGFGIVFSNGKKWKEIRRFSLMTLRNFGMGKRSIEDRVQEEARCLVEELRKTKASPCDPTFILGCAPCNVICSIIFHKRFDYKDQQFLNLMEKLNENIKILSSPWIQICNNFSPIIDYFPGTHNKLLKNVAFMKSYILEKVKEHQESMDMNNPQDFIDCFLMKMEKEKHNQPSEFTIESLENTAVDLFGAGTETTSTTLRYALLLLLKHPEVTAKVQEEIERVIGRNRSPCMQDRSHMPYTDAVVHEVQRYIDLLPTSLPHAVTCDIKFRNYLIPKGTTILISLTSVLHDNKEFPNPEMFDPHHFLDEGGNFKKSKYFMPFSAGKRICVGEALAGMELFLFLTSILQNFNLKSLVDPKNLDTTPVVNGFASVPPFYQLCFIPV
Description: as §4, §5

hCB-2 [3] = molecular target: T5, hCB-2 (Homo sapiens, UniProt P34972); assay: hCB2-Sf9 agonist mode SPA GTP-γ-35S binding assay; assay type: biochemical; settings: read-out: hCB-2 SPA GTPγS Sf9 Membrane Agonist Relative EC50
T5 construct: purchased Perkin Elmer, Boston, Mass; host or cells: Sf9 cell membranes
T5 sequence (P34972 whole entry): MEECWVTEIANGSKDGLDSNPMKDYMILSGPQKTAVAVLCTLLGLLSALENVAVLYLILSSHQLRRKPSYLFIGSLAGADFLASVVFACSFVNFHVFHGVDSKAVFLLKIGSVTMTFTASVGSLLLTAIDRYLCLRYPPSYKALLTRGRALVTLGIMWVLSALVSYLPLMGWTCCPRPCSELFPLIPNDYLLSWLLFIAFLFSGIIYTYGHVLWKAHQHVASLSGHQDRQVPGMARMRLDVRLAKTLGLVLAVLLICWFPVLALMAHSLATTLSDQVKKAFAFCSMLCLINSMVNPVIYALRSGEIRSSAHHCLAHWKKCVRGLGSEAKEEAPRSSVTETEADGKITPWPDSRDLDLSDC
Description: (§6) Compounds of the present invention may be tested for functional activity at the CB-1 and CB-2 receptors in both agonist and antagonist modes using SPA (Scintillation Proximity Assay) based GTP-γ-^35S binding assays. All assay components are prepared in assay buffer (20 mM HEPES, 100 mM NaCl, 5 mM MgCl2, pH 7.4) at room temperature. Semi-log dilutions of test compound are prepared in assay buffer containing BSA (0.125% final conc.) for the agonist mode assays. For the antagonist mode assays, test compounds are prepared in the same manner but also include an 80% efficacious dose of a full agonist (methanandamide). GTP-γ^35S binding for the antagonist assay may be measured in a 96 well format using a modification of an antibody capture technique previously described. (DeLapp, N W, et al. (1999) J Pharmacol Exp Ther 289:946-955.) The CB-2 receptor agonist activity may be measured using a similar method using hCB2-Sf9 membranes. The CB-1 receptor agonist activity may be measured using a whole membrane capture technique using hCB1-CHO membranes. All incubations are done at room temperature. […]
Data are analyzed as follows: Background is subtracted from all wells. […] Percent antagonist inhibition is calculated by first normalizing the data to the signal generated by a saturating concentration of the full agonist (methanandamide). […]

hCB-2 [4] = molecular target: T5, hCB-2; assay: hCB2-Sf9 antagonist mode SPA GTP-γ-35S binding assay; assay type: biochemical; settings: antagonist mode vs methanandamide; read-out: hCB-2 SPA GTPγS Sf9 Membrane Antagonist Kb
Description: as §6
(§7) Data are analyzed as follows: Background is subtracted from all wells. […] Percent antagonist inhibition is calculated by first normalizing the data to the signal generated by a saturating concentration of the full agonist (methanandamide). Then the data are analyzed using a 4-parameter logistic reduced fit (Activity Base™ and XLFit3™ from IDBS, Emeryville, Calif.). Kb values are determined using a modification of the Cheng-Prusoff relationship: Kb=IC50/(1+[agonist]/EC50), where “IC50” is determined from a four parameter fit of displacement curves, “[agonist]” is the agonist challenge concentration (nM), and “EC50” is determined from a four parameter fit of a full agonist concentration response curve (Cheng and Prusoff 1973). Mean Kb values are calculated as a mean of at least three independent determinations±standard error of the mean (SEM). […]

hCB-1 [5] = molecular target: T1, hCB-1; assay: hCB1-Sf9 antagonist mode SPA GTP-γ-35S binding assay; assay type: biochemical; design: purchased Applied Cell Sciences, Rockville, Md; settings: Sf9 membrane 22.7 μg; antagonist mode vs methanandamide; read-out: hCB-1 SPA GTPγS Sf9 Membrane 22.7 μg Antagonist Kb
Description: as §6, §7

Kb (hCB-1 [1]): 0.179 nM
Risk of Drug Drug Interaction (DDI) CYP2D6 (CYP2D6): Low
Risk of Drug Drug Interaction (DDI) CYP3A (CYP3A): Low
EC50 (hCB-1 [2]; inverse agonism, read-out: hCB-1 SPA GTPγS CHO Membrane Agonist Relative EC50 inverse): 0.943 nM
hCB-1 SPA GTPγS CHO Membrane Agonist % Relative Efficacy (hCB-1 [2]; normalized to full agonist methanandamide): −97.3%
Kb (rCB-1): 0.238 nM
EC50 (hCB-2 [3]): > 100000 nM
Kb (hCB-2 [4]): > 18400 nM
Kb (hCB-1 [5]): 1.77 nM
SMILES: CC(C)(N[C@@H]1C[C@H](c2cccc(OC(F)(F)F)c2)N(c2ccc(C#N)cc2)C1=O)c1cccc(C(F)(F)F)n1 [27 Tosylate salt, 4-[(3R,5R)-3-[1-methyl-1-(6-trifluoromethyl-pyridin-2-yl)-ethylamino]-2-oxo-5-(3-trifluoromethoxy-phenyl)-pyrrolidin-1-yl]-benzonitrile tosylate]
Risk of Drug Drug Interaction (DDI) CYP2C9 (CYP2C9): low (a reduction in metabolite peak area of less than 30% (relative to the uninhibited control incubation) receives a designation of low risk of Drug Drug Interaction (DDI))
